This note sets out measurements from patent US8183271B2, “Tetrazole derivatives and their use for the treatment of cardiovascular diseases” (Bayer Intellectual Property GmbH, priority 2005, dated 2012).

As usually defined, the pIC50 is the IC50 on a negative log10 scale, so that one unit is a factor of ten. Higher therefore signals a small IC50.

pIC50: −log10 of the molar value.

The test system of assay [1] is saphenous artery rings. In words: Vasorelaxant effect in vitro (phenylephrine-contracted artery rings). Type of assay: cell-based, Rabbits. As to conditions: rabbit saphenous artery rings, contraction induced by phenylephrine. The method, then:
Rabbits are anesthetized and sacrificed by intravenous injection of thiopental sodium (about 50 mg/kg) and exsanguinated. The saphenous artery is removed and divided into rings 3 mm wide. The rings are mounted singly on in each case a pair of triangular hooks open at the end and made of 0.3 mm-thick special wire (Remanium®). Each ring is placed under an initial tension in 5 ml organ baths with Krebs-Henseleit solution which is at 37° C., is gassed with 95% O2/5% CO2 and has the following composition: NaCl 119 mM; KCl 4.8 mM; CaCl2×2H2O 1 mM; MgSO4×7H2O 1.4 mM; KH2PO4 1.2 mM; NaHCO3 25 mM; glucose 10 mM; bovine serum albumin 0.001%. The force of contraction is detected with Statham UC2 cells, amplified and digitized via A/D converters (DAS-1802 HC, Keithley Instruments, Munich) and recorded in parallel on chart recorders. Contractions are induced by addition of phenylephrine.
After several (generally 4) control cycles, the substance to be investigated is added in each further run in increasing dosage, and the height of the contraction achieved under the influence of the test substance is compared with the height of the contraction reached in the last preceding run. The concentration necessary to reduce the contraction reached in the preceding control by 50% is calculated from this (IC50). The standard application volume is 5 μl. The proportion of DMSO in the bath solution corresponds to 0.1%.

The test system of assay [2] is spontaneously hypertensive rats (SH rats). In words: Radiotelemetric measurement of blood pressure and heart rate on conscious SH rats. The class given is in vivo. As to conditions: oral administration of 10 mg/kg. The method, then:
A commercially available telemetry system from Data Sciences International DSI, USA, is employed for the measurements on conscious SH rats described below.
The system consists of 3 main components: (1) implantable transmitter, (2) receiver which is linked via a multiplexer to a (3) data acquisition computer. The telemetry system makes it possible to record continuously the blood pressure and heart rate on conscious animals in their usual habitat.
The investigations are carried out on adult female spontaneously hypertensive rats (SH rats) with a body weight of >200 g. After transmitter implantation, the experimental animals are housed singly in type 3 Makrolon cages. They have free access to standard feed and water. […]
In the standard procedure, the following are measured for 10-second periods in each case: (1) systolic blood pressure (SBP), (2) diastolic blood pressure (DBP), (3) mean arterial pressure (MAP) and (4) heart rate (HR).
Measurement acquisition is repeated under computer control at 5-minute intervals. The source data obtained as absolute value are corrected in the diagram with the currently measured barometric pressure and stored in individual data. […]
The test substances are administered at 9.00 h on the day of the experiment. Following the administration, the parameters described above are measured over 24 hours. […]

Turning to `CC(C)(C)c1ccc(COc2ccccc2/C=C/C(CCc2ccc(-c3nnn[nH]3)cc2)Cc2ccc(C(=O)O)cc2)cc1` (single isomer, unassigned) [Example 6, 4-((3E)-4-{2-[(4-tert-Butylbenzyl)oxy]phenyl}-2-{2-[4-(1H-tetrazol-5-yl)phenyl]ethyl}but-3-en-1-yl)benzoic acid], the pIC50 in assay [1] was 6.92. In assay [2], the “Period of blood pressure reduction” value is 11 h and the “Reduction in blood pressure” value is reported as “marked reduction in blood pressure”.
